Read-outs that look alike come from different tables or passages of the source.
Key:
[1] = Comparison of treatment methods for removing geosmin from water (Table 4, FIG. 6)
[2] = Comparison of treatment methods for removing MIB from water (Table 4, FIG. 6)
[3] = tested on: MS2 coliphage; type: cell-based; conditions: for effect of peroxide addition on virus / MS2 coliphage disinfection: at the ozone and peroxide doses tested, media filtered or microfiltered water
[4] = tested on: poliovirus; type: cell-based
[5] = tested on: total coliform; type: cell-based, coliforms
[6] = Destruction of trace organic compounds in waste water: nonylphenol; parameters: dose or concentration left out as unconfirmed; conditions: ozone dose of about, FIG. 20
Experimental: (§1) While ozone and ozone/peroxide methods are know to reduce the levels of various organic compounds commonly found in waste water, the efficacy of the present apparatus, systems, and methods for removing nonylphenol (NP), bisphenol-A (BPA), and triclosan (TCS) from waste water was also tested.

[7] = Destruction of trace organic compounds in waste water: triclosan; parameters: dose or concentration left out as unconfirmed; conditions: FIG. 20
Experimental: as §1

[8] = Destruction of trace organic compounds in waste water: bisphenol-A; parameters: dose or concentration left out as unconfirmed; conditions: FIG. 20
Experimental: as §1

[9] = Bench-scale ozone / AOP treatment of tertiary filtered effluent: Estradiol Equivalents (B-screen bioassay); conditions: Ozone Only Mode, ozone dose of less than or equal to 5 mg/l, FIG. 27
[10] = Bench-scale ozone / AOP treatment of tertiary filtered effluent: Gemifibrozil; conditions: Ozone Only Mode, ozone dose of less than or equal to 5 mg/l, FIG. 28
[11] = Bench-scale ozone / AOP treatment of tertiary filtered effluent: Ibuprofen; conditions: Ozone Only Mode
[12] = Bench-scale ozone / AOP treatment of tertiary filtered effluent: Triclosan; conditions: Ozone Only Mode, ozone dose of 5 mg/l, FIG. 30
[13] = Bench-scale ozone / AOP treatment of tertiary filtered effluent: Caffeine; conditions: Ozone Only Mode, ozone dose of 5 mg/l, FIG. 31
[14] = Bench-scale ozone / AOP treatment of tertiary filtered effluent: Fluoxetine; conditions: Ozone Only Mode, ozone dose of 5 mg/l, FIG. 32
[15] = Bench-scale ozone / AOP treatment of tertiary filtered effluent: Sulfamethoxazole; conditions: Ozone Only Mode, ozone dose of 5 mg/l, FIG. 33
[16] = Bench-scale ozone / AOP treatment of tertiary filtered effluent: Trimethoprim; conditions: Ozone Only Mode, ozone dose of 5 mg/l, FIG. 34
[17] = tested on: E. Coli; assay: Bench-scale ozone / AOP disinfection of tertiary filtered effluent: E. Coli; type: cell-based; conditions: Ozone Only Mode, ozone dose of less than or equal to 5 mg/l

OO [Hydrogen peroxide]
Removal (%) Geosmin ([1]; feed rate 1 mg/L): 50%
Removal (%) MIB ([2]; feed rate 1 mg/L): 72%
effect of peroxide addition on virus / MS2 coliphage disinfection ([3]; listed as Peroxide): did not impact disinfection efficacy
effect of peroxide addition on virus / MS2 coliphage disinfection ([3]; listed as hydrogen peroxide): did not interfere
effect of peroxide addition on virus / MS2 coliphage disinfection ([3]; listed as peroxide): did not significantly affect disinfection

O=[O+][O-] [Ozone]
reduction in geosmin [1]: ~40%
Removal (%) Geosmin ([1]; feed rate 2.5 mg/L): 94%
Removal (%) MIB ([2]; feed rate 2.5 mg/L): 77%
reduction in MIB ([2]; ozone 3 mg/L, FIG. 6): ~40%
Log Reduction of MS2 as a function of ozone dose (equation 2) [3]: 0.4045×Ozone Dose+0.1823
contact time sufficient to achieve a 6.5-log disinfection of MS2 coliphage [3]: about 10 seconds
disinfection of MS2 coliphage achieved [3]: 6.5 log
ozone dose required to achieve a 6.5-log disinfection of MS2 coliphage [3]: greater than 5 ppm
ozone required to achieve a 6.5-log disinfection of MS2 coliphage, relative to media-filtered water [3]: slightly lower
Log Reduction of Poliovirus as a function of ozone dose (equation 1) [4]: 0.3427×Ozone Dose−0.3621
disinfection of poliovirus corresponding to the 6.5-log disinfection of MS2 coliphage [4]: 5 log
levels of coliforms after treatment [5]: non-detectable
ozone dose at which non-detectable levels of total coliform were achieved [5]: 4.5 mg/L
total coliform after treatment [5]: less than 2.2 MPN/100 mL
reduction of the levels of NP [6]: substantially reduce
reduction of the levels of TCS [7]: substantially reduce
reduction of the levels of BPA [8]: substantially reduce
maximum removal of Estradiol Equivalents [9]: > 97%
maximum removal of Gemifibrozil [10]: > 99%
removal of Ibuprofen ([11]; ozone dose of 5 mg/l, FIG. 29): ~77%
maximum removal of Ibuprofen ([11]; ozone dose of less than or equal to 10 mg/l): > 98%
maximum removal of Triclosan [12]: > 76%
maximum removal of Caffeine [13]: > 96%
maximum removal of Fluoxetine [14]: > 97%
maximum removal of Sulfamethoxazole [15]: > 99.9%
maximum removal of Trimethoprim [16]: > 99%
log reduction of E. Coli [17]: greater than 4 log
E. Coli after disinfection (below the detection limit) ([17]; untreated 12,000 organism/100 ml, FIG. 37): < 1 organism/100 ml

From patent US9227852B2, “Apparatus, systems, and methods for water treatment” (McWong Environmental Technology, priority 2008, dated 2016)
